{"source": "patent US20090018620A1", "about": "“METHOD FOR RESTORING AN E[…]” ([…], priority 2007, published 2009)", "key": {"[1]": {"test_system": "LSt neurons", "experiment": "Muscimol injection into LSt neuron area 3.4 s after LSt neuron microstimulation, during ongoing rhythmic BS EMG activity (FIG. 4)", "format": "in vivo, rat", "protocol": "(§1) All procedures were in accordance with the European Communities Council Directives 86/609/EEC on the use of laboratory animals. Male adult sexually naïve Wistar rats (Janvier, Le Genest-St-Isle, France) of 275-325 grams, housed for at least 4 days in our animal facility before experimentation, were anesthetized with […] intraperitoneal urethane while body temperature was maintained at 37° C. with a homeothermic blanket. […] Custom-made bipolar steel wire electrodes (AS631, CoonerWire, CA, USA) were implanted into the exposed dorsal part of the right bulbospongiosus (BS) muscle. After suprapubic midline abdominal incision, a 1.1 mm diameter mineral oil-filled catheter was inserted into the lumen of the right seminal vesicle (SV) via its apex or the right vas deferens (VD) was cut and a 0.61 mm diameter catheter filled with isotonic salt solution inserted into the prostatic portion of the VD lumen. Then, the spine was exposed dorsally and fixed with a stereotaxic frame. Laminectomy was performed between vertebrae L1-T13 to expose […] spinal level and the dura was carefully removed. To improve intraspinal access, we incubated the spinal cord for 20 minutes with 3 units/μl collagenase type VII from Clostridium histolyticum (Sigma-Aldrich Chimie, St.Quentin Fallavier, France). To target T12 to L6 spinal levels in FIG. 2C, we performed 2-3 laminectomies on the same animal. Acute spinalization was performed through a complete spinal transection between T8 and T9 spinal levels one hour before microstimulation started. We performed bilateral sectioning of i) the hypogastric and pelvic nerves close to the major pelvic ganglion or iii) the dorsal nerves of the penis at the penile crus. A single experiment lasted 2 to 4 hours.\n(§2) Monopolar spinal microstimulation was performed with a ‘Formvar’-coated nichrome wire of 50 μm diameter (AM-Systems Inc. WA, USA). Typically, the electrode was positioned on the dorsal surface at L4 spinal level, adjacent to the right of the dorsal spinal artery and lowered vertically with a hydraulic microdrive (Trent-Wells, Coulterville, Calif., USA) to ˜1600 μm depth in correspondence with the stereotaxic coordinates for laminae VII and X (S2), taking as electrode depth the read-out of the microdrive. A reference electrode was placed in the vicinity of the tail. Electrical stimuli were delivered using a pulse generator (model-2100, AM-Systems Inc. WA, USA). Biphasic rectangular current pulses of 0.5 ms duration applied in short trains of 60 to 100 pulses at 200 Hz for a total duration of 300 to 500 ms were applied. This stimulus was optimal without causing temporal overlap between stimulus and the SV/VD/BS muscle responses, according to preliminary experiments. […]"}, "[2]": {"test_system": "LSt neurons", "experiment": "Muscimol injection into LSt neuron area at L4 immediately before intraspinal microstimulation, BS EMG recording (FIG. 3)", "format": "in vivo, rat", "protocol": "as §1, §2"}, "[3]": {"details": "~20 minutes after muscimol injection"}}, "note": "Entries after “also recorded” stand apart in the source; their conditions may differ.", "data": [{"smiles": "NCc1cc(=O)[nH]o1", "note": "[muscimol]", "values": [{"measurement": "Time to full suppressive effect on BS EMG activity after muscimol injection", "setting": "[1]; average of 5 animals, injection total duration 400 ms", "result": "≤ 160 ± 120", "unit": "ms"}, {"measurement": "Rhythmic pattern of BS EMG activity, of the control response", "setting": "[1]; muscimol applied 3.4 s after end of LSt neuron microstimulation, mean BS rEMG 0.3-15.3 s after injection, n=5, P<10^−5", "result": "2±2", "unit": "%"}, {"measurement": "Effect on ongoing BS EMG activity (example experiment)", "setting": "[1]; ~200 nl of 50 μM muscimol injected 3.4 s after microstimulation, LSt neuron area adjacent to electrode tip", "result": "completely interrupted the BS EMG activity; also recorded: rapidly turned off BS EMG activity"}, {"measurement": "BS EMG response to microstimulation after recovery period", "setting": "[1]; [3]", "result": "partial response recovery"}, {"measurement": "BS EMG activity following microstimulation, of the control response", "setting": "[2]; anesthetized rats, 50 μM muscimol injected at L4 near electrode tip, microstimulation immediately after, n=5, P<10^−5", "result": "6±5", "unit": "%"}, {"measurement": "BS EMG activity during the time of microstimulation (unrelated to the ejaculation response) in the presence of muscimol as compared to controls", "setting": "[2]; anesthetized rats, n=5, P=0.07", "result": "58±25", "unit": "%"}, {"measurement": "Effect on BS EMG activity evoked by second identical microstimulation (example experiment)", "setting": "[2]; ~200 nl of 50 μM muscimol in the vicinity of the electrode tip, immediately before microstimulation", "result": "abolished BS EMG activity"}, {"measurement": "BS EMG response to third microstimulation (recovery)", "setting": "[2]; [3]", "result": "partial response recovery"}]}]}
